In PubChem BioAssay (NCI):
Where “and” joins values, the source holds several entries; their conditions need not be identical. Equal entries are not always repeated.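 Interpolation was linear, between the two tested concentrations surrounding the appropriate level; five concentrations were tested over 48 hours in 96-well plates. GI50 = concentration required for 50% inhibition of growth. The concentration for full growth arrest is given as TGI.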

How the values were obtained:
Assay in all cases: NCI tumour cell line growth inhibition, 48 h
SNB-75 CNS = tested on: SNB-75 CNS
M14 melanoma = tested on: M14 melanoma
SK-OV-3 ovarian = tested on: SK-OV-3 ovarian
MOLT-4 leukemia = tested on: MOLT-4 leukemia
IGROV1 ovarian = tested on: IGROV1 ovarian
UACC-62 melanoma = tested on: UACC-62 melanoma
OVCAR-4 ovarian = tested on: OVCAR-4 ovarian
SNB-19 CNS = tested on: SNB-19 CNS
HS 578T breast = tested on: HS 578T breast
SF-539 CNS = tested on: SF-539 CNS

Row | SMILES | GI50 (SNB-75 CNS) [µM] | TGI (SNB-75 CNS) [µM] | GI50 (M14 melanoma) | TGI (M14 melanoma) [µM] | GI50 (SK-OV-3 ovarian) | TGI (SK-OV-3 ovarian) | GI50 (MOLT-4 leukemia) [µM] | TGI (MOLT-4 leukemia) [µM] | GI50 (IGROV1 ovarian) [µM] | TGI (IGROV1 ovarian) [µM] | GI50 (UACC-62 melanoma) [µM] | TGI (UACC-62 melanoma) | GI50 (OVCAR-4 ovarian) | TGI (OVCAR-4 ovarian) | GI50 (SNB-19 CNS) | TGI (SNB-19 CNS) [µM] | GI50 (HS 578T breast) [µM] | TGI (HS 578T breast) [µM] | TGI (SF-539 CNS) | GI50 (SF-539 CNS)
1 | C[n+]1ccc(-c2c3nc(c(-c4ccc5c(ccc[n+]5C)c4)c4ccc([nH]4)c(-c4cc[n+](C)cc4)c4nc(c(-c5ccc6c(ccc[n+]6C)c5)c5ccc2[nH]5)C=C4)C=C3)cc1 | 5.09 | 26.1 | > 50 µM | > 50 | > 50 µM | > 50 µM | > 50 | > 50 | > 50 | > 50 | > 50 | > 50 µM | 27.5 µM | > 50 µM | 24.2 µM | > 50 | 42.4 | > 50 | – | –
2 | CC1=C(C(=O)Nc2ccccc2C)C(c2ccc(C3C(C(=O)Nc4ccccc4C)=CNC=C3C(=O)Nc3ccccc3C)cc2)C(C(=O)Nc2ccccc2C)=C(C)N1 | – | 54.8 | – | 33 | – | > 58.2 µM | – | > 40.3 | – | 37.1 | – | 31.9 µM | – | 22 µM | – | 49.1 | – | – | 19.6 µM | –
3 | CC(=O)OCC1OC(n2c(-c3ccccc3)c(C)c(C)c(C#N)c2=S)C(OC(C)=O)C(OC(C)=O)C1OC(C)=O (centres undefined) | – | > 100 | 15.4 µM and 35 µM | > 100 | 13.2 µM and > 100 µM | 48.8 µM and > 100 µM | – | > 100 | – | > 100 | – | > 50 µM and 43.5 µM | 14.8 µM and 76.1 µM | 34.1 µM and > 100 µM | 17.9 µM and 44.9 µM | > 100 | – | – | 36.8 µM and > 100 µM | 14.4 µM and > 100 µM
4 | Cc1cc2c(cc1C)[n+](=O)c(C(=O)/C=C/c1ccccc1Cl)c(C)n2[O-] | – | 47.5 | – | 51.7 | – | 73.1 µM | – | > 100 | – | 37.9 | – | 35.1 µM | – | > 100 µM | – | > 100 | – | – | 42.6 µM | –
5 | CCC(/C(=N\Nc1c(Cl)cc(Cl)cc1Cl)c1ccccc1)n1ccnc1C (centres undefined) | – | 29.5 | – | 28.6 | – | 32.3 µM | – | 37.1 | – | 28.8 | – | 36.7 µM | – | 30 µM | – | 28.5 | – | – | 31.1 µM | –
6 | COc1ccc(Cn2c(Br)c3c(c2-c2cc(OC)c(OC)c(OC)c2)CCc2sc(NC(C)=O)nc2-3)cc1 | 1.82 | > 100 | 3.57 µM | > 100 | – | – | 4.37 | > 100 | 4.46 | > 100 | 4.29 | > 100 µM | 3.49 µM | > 100 µM | > 100 µM | > 100 | – | – | 6.79 µM | 2.41 µM
7 | CCN1CCN(C(=O)[C@]23CCC(C)(C)C[C@@H]2C2=CC[C@@H]4[C@@]5(C)C/C(=C/c6cccnc6)C(=O)C(C)(C)[C@@H]5CC[C@@]4(C)[C@]2(C)CC3)CC1 | – | – | 1.6 µM | 3.15 | 4.19 µM | 16.8 µM | 1.03 | 5.2 | 1.91 | 4.16 | 1.28 | 2.83 µM | 2.17 µM | 7.85 µM | 1.68 µM | 3.46 | 1.83 | 5.37 | 3 µM | 1.62 µM
8 | O=C(c1ccc2c3c(ccc(C(=O)C(F)(F)F)c13)CC2)C(F)(F)F | – | > 100 | – | > 100 | – | > 100 µM | – | > 100 | – | > 100 | – | > 100 µM | – | > 100 µM | – | > 100 | – | – | > 100 µM | –
9 | Oc1cc2c(cc1O)-c1[nH]ncc1CC2 | – | 70.5 | – | > 100 | – | > 100 µM | – | 88.8 | – | > 100 | – | 90.4 µM | – | – | – | > 100 | – | – | > 100 µM | –
10 | O=c1[nH]c(/C=C(\O)c2ccncc2)nc2ccccc12 | – | > 100 | – | > 100 | – | > 100 µM | – | > 100 | – | > 100 | – | > 100 µM | – | > 100 µM | – | > 100 | – | – | – | –
11 | O=[N+]([O-])c1ccc(-c2cn(-c3ccc(Cl)cc3)cn2)cc1 | – | 35.2 | – | > 100 | – | 24.4 µM | – | > 100 | – | > 100 | – | > 100 µM | – | – | – | > 100 | – | > 100 | – | –
12 | CN(C)/C(N)=N/C(N)=S | – | > 100 | – | > 100 | – | > 100 µM | – | > 100 | – | > 100 | – | > 100 µM | – | > 100 µM | – | > 100 | – | – | > 100 µM | –
13 | O=C1C(N2C(=O)c3ccccc3C2=O)CN1C(COCc1ccccc1)c1ccc(OCc2ccccc2)cc1 (centres undefined) | – | > 100 | – | > 100 | – | > 100 µM | – | > 100 | – | > 100 | – | > 100 µM | – | > 100 µM | – | > 100 | – | – | > 100 µM | –
14 | N#CC1=C(c2ccccc2)C(O)(c2ccccc2)NC1=O (centres undefined) | – | > 100 | – | > 100 | – | 88.9 µM | – | > 100 | – | > 100 | – | > 100 µM | – | > 100 µM | – | – | – | – | 63.3 µM | –
15 | COc1ccc(C(=O)O)c(Cc2ccc3ccccc3c2)c1 | – | > 100 | – | > 100 | – | > 100 µM | – | > 100 | – | > 100 | – | > 100 µM | – | > 100 µM | – | > 100 | – | – | > 100 µM | –
16 | ClC[Si]12OCCN(CCO1)CCO2 | – | > 100 | – | – | – | > 100 µM | – | > 100 | – | > 100 | – | > 100 µM | – | – | – | > 100 | – | – | > 100 µM | –
17 | O=CC1(C2(C=O)c3ccccc3-c3ccccc32)c2ccccc2-c2ccccc21 | 3.29 | 8.08 | – | – | – | – | 1.38 | 3.33 | 0.323 | 0.924 | 2.69 | 6.25 µM | 2.02 µM | 5.26 µM | – | – | 2.7 | 7.49 | 4.37 µM | 2.01 µM
18 | CC(C)CC(=O)NS(=O)(=O)c1ccccc1 | – | > 100 | – | > 100 | – | > 100 µM | – | > 100 | – | > 100 | – | > 100 µM | – | > 100 µM | – | > 100 | – | – | > 100 µM | –
19 | COc1ccc(-c2coc3cc(OC)cc(O)c3c2=O)cc1 | – | > 100 | – | > 100 | – | > 100 µM | – | – | – | > 100 | – | > 100 µM | – | > 100 µM | – | > 100 | – | > 100 | > 100 µM | –
20 | CC1=CC2C(C(C)C)CC1C1C(=O)OC(=O)C21 (centres undefined) | – | > 100 | – | > 100 | – | > 100 µM | – | – | – | > 100 | – | > 100 µM | – | > 100 µM | – | > 100 | – | > 100 | > 100 µM | –
